According to patent US10131652B2, “Pyrimidinyloxy benzene derivatives as herbicides” (E. I. DU PONT DE NEMOURS AND COMPANY, priority 2014, dated 2018):

Key:
Type in all cases: in vivo
[1] = system: blackgrass (Alopecurus myosuroides); experiment: Test B postemergence plant response
Method in brief: (§1)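 Weeds grown in loam soil/sand pots were sprayed postemergence at 2 to 10 cm height, one- to two-leaf stage. After approximately 10 days in greenhouse, injury was rated visually against untreated controls on a 0 (no effect) to 100 (complete control) scale; dash means no test result.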

[2] = system: galium (catchweed bedstraw, Galium aparine); experiment: Test B postemergence plant response
Method in brief: as §1

[3] = system: ducksalad (Heteranthera limosa); experiment: Test C flooded paddy test plant response; settings: Flood, 250 g ai/ha; scale of 0 to 100 where 0 is no effect and 100 is complete control; 13 to 15 days
Method in brief: (§2)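 2-leaf plants; flood 3 cm, cpd into paddy water; greenhouse 13–15 d; visual score vs untreated, 0 = no effect, 100 = complete control; dash = no result.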

rice (Oryza sativa) = experiment: Test C flooded paddy test plant response; settings: Flood, 250 g ai/ha; scale of 0 to 100 where 0 is no effect and 100 is complete control; 13 to 15 days
Method in brief: as §2

[4] = system: small-flower umbrella sedge (Cyperus difformis); experiment: Test C flooded paddy test plant response; settings: Flood, 250 g ai/ha; scale of 0 to 100 where 0 is no effect and 100 is complete control; 13 to 15 days
Method in brief: as §2

[5] = system: barnyardgrass (Echinochloa crus-galli); experiment: Test C flooded paddy test plant response; settings: Flood, 250 g ai/ha; scale of 0 to 100 where 0 is no effect and 100 is complete control; 13 to 15 days
Method in brief: as §2

corn (Zea mays) = experiment: Test B pre-/postemergence plant response
Excerpt: (§3) Seeds of plant species selected from bamyardgrass (Echinochloa crus-galli), kochia (Kochia scoparia), ragweed (common ragweed, Ambrosia elatior), Italian ryegrass (Lolium multiflorum), large (Lg) crabgrass (Digitaria sanguinalis), giant foxtail (Setaria faberii), momingglory (Ipomoea spp.), pigweed (Amaranthus retroflexus), velvetleaf (Abutilon theophrasti), wheat (Triticum aestivum), and corn (Zea mays) were planted into a blend of loam soil and sand and treated preemergence with a directed soil spray using test chemicals formulated in a non-phytotoxic solvent mixture which included a surfactant. At the same time, plants selected from these crop and weed species and also blackgrass (Alopecurus myosuroides), and galium (catchweed bedstraw, Galium aparine) were planted in pots containing the same blend of loam soil and sand and treated with postemergence applications of test chemicals formulated in the same manner. Plants ranged in height from 2 to 10 cm and were in the one- to two-leaf stage for the postemergence treatment. Treated plants and untreated controls were maintained in a greenhouse for approximately 10 days, after which time all treated plants were compared to untreated controls and visually evaluated for injury. Plant response ratings, summarized in Table B, are based on a 0 to 100 scale where 0 is no effect and 100 is complete control. A dash (-) response means no test result.

[6] = system: ragweed (common ragweed, Ambrosia elatior); experiment: Test B pre-/postemergence plant response
Excerpt: as §3

[7] = system: Italian ryegrass (Lolium multiflorum); experiment: Test B pre-/postemergence plant response
Excerpt: as §3

[8] = system: giant foxtail (Setaria faberii); experiment: Test B pre-/postemergence plant response
Excerpt: as §3

kochia (Kochia scoparia) = experiment: Test B pre-/postemergence plant response
Excerpt: as §3

[9] = system: wheat (Triticum aestivum); experiment: Test B pre-/postemergence plant response
Excerpt: as §3

[10] = system: barnyardgrass (Echinochloa crus-galli); experiment: Test B pre-/postemergence plant response
Excerpt: as §3

[11] = system: pigweed (Amaranthus retroflexus); experiment: Test B pre-/postemergence plant response
Excerpt: as §3

[12] = 125 g ai/ha, postemergence, 0 to 100 scale, 0 no effect, 100 complete control
[13] = Postemergence, 500 g ai/ha, 0 to 100 scale (0 no effect, 100 complete control)
[14] = Preemergence, 125 g ai/ha, 0 to 100 scale (0 no effect, 100 complete control)
[15] = Preemergence, 500 g ai/ha, 0 to 100 scale where 0 is no effect and 100 is complete control
[16] = Postemergence, 31 g ai/ha, 0 to 100 scale (0 no effect, 100 complete control)
[17] = 31 g ai/ha, Preemergence, 0 to 100 scale where 0 is no effect and 100 is complete control
[18] = Preemergence, 125 g ai/ha, 0 to 100 scale where 0 is no effect and 100 is complete control

FC(F)c1cc(-c2ccccc2Oc2ncc(Cl)cn2)ncn1 [Compound 184]
Plant response rating, Blackgrass [1, 12]: 10
Plant response rating, Blackgrass [1, 13]: 60
Plant response rating, Galium [2, 12]: 70
Plant response rating, Galium [2, 13]: 100
Ducksalad plant response rating [3]: 0
Rice plant response rating (rice (Oryza sativa)): 0
Sedge, Umbrella plant response rating [4]: 0
Barnyardgrass plant response rating [5]: 0
Plant response rating, Corn (corn (Zea mays); [12]): 10
Plant response rating, Corn (corn (Zea mays); [13]): 20
Plant response rating, Ragweed [6, 12]: 20
Plant response rating, Ragweed [6, 13]: 40
Ragweed plant response rating [6, 14]: 0
Plant response rating, Ragweed [6, 15]: 50
Plant response rating, Ryegrass, Italian [7, 12]: 0
Plant response rating, Ryegrass, Italian [7, 13]: 20
Ryegrass, Italian plant response rating [7, 14]: 0
Plant response rating, Ryegrass, Italian [7, 15]: 10
Plant response rating, Foxtail, Giant [8, 12]: 10
Plant response rating, Foxtail, Giant [8, 13]: 70
Foxtail, Giant plant response rating [8, 14]: 20
Plant response rating, Foxtail, Giant [8, 15]: 90
Plant response rating, Kochia (kochia (Kochia scoparia); [12]): 70
Plant response rating, Kochia (kochia (Kochia scoparia); [13]): 100
Kochia plant response rating (kochia (Kochia scoparia); [14]): 20
Plant response rating, Kochia (kochia (Kochia scoparia); [15]): 100
Plant response rating, Wheat [9, 12]: 0
Plant response rating, Wheat [9, 13]: 10
Plant response rating, Barnyardgrass [10, 12]: 0
Plant response rating, Barnyardgrass [10, 13]: 50
Barnyardgrass plant response rating [10, 14]: 10
Plant response rating, Barnyardgrass [10, 15]: 90
Plant response rating, Pigweed [11, 12]: 90
Plant response rating, Pigweed [11, 13]: 100
Pigweed plant response rating [11, 14]: 80
Plant response rating, Pigweed [11, 15]: 100

Cn1nc(-c2c(Br)cccc2Oc2ncc(Cl)cn2)cc1C(F)(F)F [Compound 147]
Plant response rating, Blackgrass [1, 12]: 0
Plant response rating, Blackgrass [1, 16]: 0
Plant response rating, Galium [2, 12]: 0
Plant response rating, Galium [2, 16]: 0
Ducksalad plant response rating [3]: 0
Rice plant response rating (rice (Oryza sativa)): 0
Sedge, Umbrella plant response rating [4]: 0
Barnyardgrass plant response rating [5]: 0
Plant response rating, Corn (corn (Zea mays); [12]): 0
Plant response rating, Corn (corn (Zea mays); [16]): 0
Plant response rating, Ragweed [6, 17]: 0
Plant response rating, Ragweed [6, 12]: 0
Plant response rating, Ragweed [6, 16]: 0
Ragweed plant response rating [6, 14]: 0
Plant response rating, Ryegrass, Italian [7, 17]: 0
Plant response rating, Ryegrass, Italian [7, 12]: 0
Plant response rating, Ryegrass, Italian [7, 16]: 0
Ryegrass, Italian plant response rating [7, 14]: 0
Plant response rating, Foxtail, Giant [8, 17]: 0
Plant response rating, Foxtail, Giant [8, 12]: 0
Plant response rating, Foxtail, Giant [8, 16]: 0
Foxtail, Giant plant response rating [8, 14]: 0
Plant response rating, Kochia (kochia (Kochia scoparia); [17]): 0
Plant response rating, Kochia (kochia (Kochia scoparia); [12]): 0
Plant response rating, Kochia (kochia (Kochia scoparia); [16]): 0
Kochia plant response rating (kochia (Kochia scoparia); [14]): 0
Plant response rating, Wheat [9, 12]: 0
Plant response rating, Wheat [9, 16]: 0
Plant response rating, Barnyardgrass [10, 17]: 0
Plant response rating, Barnyardgrass [10, 12]: 0
Plant response rating, Barnyardgrass [10, 16]: 0
Barnyardgrass plant response rating [10, 14]: 0
Plant response rating, Pigweed [11, 17]: 0
Plant response rating, Pigweed [11, 12]: 0
Plant response rating, Pigweed [11, 16]: 0
Pigweed plant response rating [11, 14]: 0

Cn1nc(-c2c(C#N)cccc2Oc2ncc(Cl)cn2)cc1C(F)(F)F [Compound 146]
Plant response rating, Blackgrass [1, 12]: 30
Plant response rating, Blackgrass [1, 16]: 0
Plant response rating, Galium [2, 12]: 50
Plant response rating, Galium [2, 16]: 30
Ducksalad plant response rating [3]: 0
Rice plant response rating (rice (Oryza sativa)): 0
Sedge, Umbrella plant response rating [4]: 0
Barnyardgrass plant response rating [5]: 0
Plant response rating, Corn (corn (Zea mays); [12]): 0
Plant response rating, Corn (corn (Zea mays); [16]): 0
Plant response rating, Ragweed [6, 17]: 0
Plant response rating, Ragweed [6, 12]: 0
Plant response rating, Ragweed [6, 16]: 0
Ragweed plant response rating [6, 14]: 0
Plant response rating, Ryegrass, Italian [7, 17]: 0
Plant response rating, Ryegrass, Italian [7, 12]: 0
Plant response rating, Ryegrass, Italian [7, 16]: 0
Ryegrass, Italian plant response rating [7, 14]: 0
Plant response rating, Foxtail, Giant [8, 17]: 0
Plant response rating, Foxtail, Giant [8, 12]: 20
Plant response rating, Foxtail, Giant [8, 16]: 0
Foxtail, Giant plant response rating [8, 14]: 20
Plant response rating, Kochia (kochia (Kochia scoparia); [17]): 0
Plant response rating, Kochia (kochia (Kochia scoparia); [12]): 60
Plant response rating, Kochia (kochia (Kochia scoparia); [16]): 50
Kochia plant response rating (kochia (Kochia scoparia); [14]): 0
Plant response rating, Wheat [9, 12]: 0
Plant response rating, Wheat [9, 16]: 0
Plant response rating, Barnyardgrass [10, 17]: 0
Plant response rating, Barnyardgrass [10, 12]: 20
Plant response rating, Barnyardgrass [10, 16]: 0
Barnyardgrass plant response rating [10, 14]: 30
Plant response rating, Pigweed [11, 17]: 0
Plant response rating, Pigweed [11, 12]: 60
Plant response rating, Pigweed [11, 16]: 30
Pigweed plant response rating [11, 14]: 70

C=C(C)c1cc(-c2ccccc2Oc2ncc(Cl)cn2)on1 [Compound 196]
Plant response rating, Blackgrass [1, 12]: 0
Plant response rating, Blackgrass [1, 16]: 0
Plant response rating, Galium [2, 12]: 100
Plant response rating, Galium [2, 16]: 60
Ducksalad plant response rating [3]: 55
Rice plant response rating (rice (Oryza sativa)): 0
Sedge, Umbrella plant response rating [4]: 70
Barnyardgrass plant response rating [5]: 30
Plant response rating, Corn (corn (Zea mays); [12]): 0
Plant response rating, Corn (corn (Zea mays); [16]): 0
Plant response rating, Ragweed [6, 17]: 0
Plant response rating, Ragweed [6, 12]: 20
Plant response rating, Ragweed [6, 16]: 10
Ragweed plant response rating [6, 14]: 0
Plant response rating, Ryegrass, Italian [7, 17]: 0
Plant response rating, Ryegrass, Italian [7, 12]: 0
Plant response rating, Ryegrass, Italian [7, 16]: 0
Ryegrass, Italian plant response rating [7, 14]: 0
Plant response rating, Foxtail, Giant [8, 17]: 0
Plant response rating, Foxtail, Giant [8, 12]: 10
Plant response rating, Foxtail, Giant [8, 16]: 0
Foxtail, Giant plant response rating [8, 14]: 20
Plant response rating, Kochia (kochia (Kochia scoparia); [17]): 0
Plant response rating, Kochia (kochia (Kochia scoparia); [12]): 40
Plant response rating, Kochia (kochia (Kochia scoparia); [16]): 0
Kochia plant response rating (kochia (Kochia scoparia); [14]): 0
Plant response rating, Wheat [9, 12]: 0
Plant response rating, Wheat [9, 16]: 0
Plant response rating, Barnyardgrass [10, 17]: 0
Plant response rating, Barnyardgrass [10, 12]: 10
Plant response rating, Barnyardgrass [10, 16]: 0
Barnyardgrass plant response rating [10, 14]: 10
Plant response rating, Pigweed [11, 17]: 0
Plant response rating, Pigweed [11, 12]: 60
Plant response rating, Pigweed [11, 16]: 20
Pigweed plant response rating [11, 14]: 10

Cn1nnc(-c2ccccc2Oc2ncc(Cl)cn2)n1 [Compound 48]
Plant response rating, Blackgrass [1, 12]: 40
Plant response rating, Blackgrass [1, 13]: 60
Plant response rating, Galium [2, 12]: 70
Plant response rating, Galium [2, 13]: 100
Ducksalad plant response rating [3]: 0
Rice plant response rating (rice (Oryza sativa)): 0
Sedge, Umbrella plant response rating [4]: 0
Barnyardgrass plant response rating [5]: 0
Plant response rating, Corn (corn (Zea mays); [12]): 0
Plant response rating, Corn (corn (Zea mays); [13]): 10
Plant response rating, Ragweed [6, 12]: 50
Plant response rating, Ragweed [6, 13]: 70
Plant response rating, Ragweed [6, 18]: 50
Plant response rating, Ragweed [6, 15]: 60
Plant response rating, Ryegrass, Italian [7, 12]: 0
Plant response rating, Ryegrass, Italian [7, 13]: 0
Plant response rating, Ryegrass, Italian [7, 18]: 40
Plant response rating, Ryegrass, Italian [7, 15]: 50
Plant response rating, Foxtail, Giant [8, 12]: 0
Plant response rating, Foxtail, Giant [8, 13]: 40
Plant response rating, Foxtail, Giant [8, 18]: 10
Plant response rating, Foxtail, Giant [8, 15]: 50
Plant response rating, Kochia (kochia (Kochia scoparia); [12]): 50
Plant response rating, Kochia (kochia (Kochia scoparia); [13]): 100
Plant response rating, Kochia (kochia (Kochia scoparia); [18]): 60
Plant response rating, Kochia (kochia (Kochia scoparia); [15]): 80
Plant response rating, Wheat [9, 12]: 0
Plant response rating, Wheat [9, 13]: 0
Plant response rating, Barnyardgrass [10, 12]: 0
Plant response rating, Barnyardgrass [10, 13]: 0
Plant response rating, Barnyardgrass [10, 18]: 0
Plant response rating, Barnyardgrass [10, 15]: 40
Plant response rating, Pigweed [11, 12]: 70
Plant response rating, Pigweed [11, 13]: 100
Plant response rating, Pigweed [11, 18]: 80
Plant response rating, Pigweed [11, 15]: 100
